Results published in publication PMC6469685 (Cell, 2018).

Key:
Experiment in all cases: NBD fluorescence titration
Assay type in all cases: binding
[1] = target: Aster-C206–528 (ASTER domain of Aster-C) (Mus musculus, UniProt Q8CI52)
[2] = target: T1, Aster-A261–576 (ASTER domain of Aster-A) (Mus musculus, UniProt Q8VEF1)
T1 sequence (Q8VEF1 261-576): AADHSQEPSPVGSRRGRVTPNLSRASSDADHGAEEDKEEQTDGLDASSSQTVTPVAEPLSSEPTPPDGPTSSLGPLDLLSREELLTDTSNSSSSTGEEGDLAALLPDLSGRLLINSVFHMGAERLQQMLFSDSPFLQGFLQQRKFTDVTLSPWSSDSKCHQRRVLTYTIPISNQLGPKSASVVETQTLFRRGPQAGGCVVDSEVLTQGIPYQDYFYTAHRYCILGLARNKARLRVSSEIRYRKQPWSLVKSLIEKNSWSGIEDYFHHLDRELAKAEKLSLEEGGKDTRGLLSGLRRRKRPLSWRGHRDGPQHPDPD

[3] = target: T2, StARD1 (StAR; HMBP-3C-STAR.66–285) (Homo sapiens, UniProt P49675); settings: labelled compound
T2 sequence (P49675 66-285): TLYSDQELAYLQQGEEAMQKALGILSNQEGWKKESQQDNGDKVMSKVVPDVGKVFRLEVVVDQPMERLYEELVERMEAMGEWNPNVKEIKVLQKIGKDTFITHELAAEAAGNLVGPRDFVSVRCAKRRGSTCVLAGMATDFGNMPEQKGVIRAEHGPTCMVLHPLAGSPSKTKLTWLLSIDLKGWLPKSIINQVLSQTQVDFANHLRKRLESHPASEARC

Chain of Aster-C206–528 (ASTER domain of Aster-C) (Q8CI52 206-528): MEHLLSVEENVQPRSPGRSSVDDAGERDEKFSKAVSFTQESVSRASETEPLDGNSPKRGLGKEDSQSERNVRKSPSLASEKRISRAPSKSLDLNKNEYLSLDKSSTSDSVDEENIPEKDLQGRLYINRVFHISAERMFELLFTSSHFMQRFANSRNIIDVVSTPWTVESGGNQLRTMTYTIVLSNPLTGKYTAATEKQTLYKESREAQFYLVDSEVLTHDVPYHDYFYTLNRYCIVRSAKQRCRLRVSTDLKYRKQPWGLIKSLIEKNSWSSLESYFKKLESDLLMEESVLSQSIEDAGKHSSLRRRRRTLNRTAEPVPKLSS

## C[C@H](CNc1ccc([N+](=O)[O-])c2nonc12)[C@H]1CC[C@H]2[C@@H]3CC=C4C[C@@H](O)CC[C@]4(C)[C@H]3CC[C@]12C [22-NBD-cholesterol]
[1]
  Kd: < 100 nM
[2]
  Kd: < 100 nM
[3]
  Kd: Comparison of NBD-cholesterol binding to Aster-A, Aster-B and StarD1
